Measurements from patent US10550102B2, “Indane and indoline derivatives and the use thereof as soluble guanylate cyclase activators” (NOVARTIS AG, priority 2014, dated 2020).
pEC50: −log10 of the molar value.

Molecular target: soluble guanylate cyclase (human GUCYA3 and GUCYB3) overexpressed in CHO cells (Homo sapiens (Human), UniProt Q02108+Q02153)
Experiment: CHO cellular assay (cGMP production, Cisbio cGMP HTRF kit)
Assay type: cell-based
Conditions: CHO GUCY clone 8E10, cGMP production, assay buffer with 1 mM IBMX and 20 uM ODQ, 1 h room temperature; minimum quantification limit 0.5 nM (listed 0.5 nM means ≤0.5 nM); read-out: EC50
In short: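 Stable CHO-K1 clone 8E10 expressing human sGC (GUCYA3/GUCYB3), 3000 cells/well, exposed 1 h at room temperature to activators in HBSS, 0.1% BSA, 1 mM IBMX, 20 uM ODQ, 0.5% DMSO final. cGMP was measured by HTRF and interpolated from a standard curve. EC50 came from a 4-parameter sigmoidal fit.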

soluble guanylate cyclase (human GUCYA3 and GUCYB3) overexpressed in CHO cells, sequence (Q02108 whole entry partner): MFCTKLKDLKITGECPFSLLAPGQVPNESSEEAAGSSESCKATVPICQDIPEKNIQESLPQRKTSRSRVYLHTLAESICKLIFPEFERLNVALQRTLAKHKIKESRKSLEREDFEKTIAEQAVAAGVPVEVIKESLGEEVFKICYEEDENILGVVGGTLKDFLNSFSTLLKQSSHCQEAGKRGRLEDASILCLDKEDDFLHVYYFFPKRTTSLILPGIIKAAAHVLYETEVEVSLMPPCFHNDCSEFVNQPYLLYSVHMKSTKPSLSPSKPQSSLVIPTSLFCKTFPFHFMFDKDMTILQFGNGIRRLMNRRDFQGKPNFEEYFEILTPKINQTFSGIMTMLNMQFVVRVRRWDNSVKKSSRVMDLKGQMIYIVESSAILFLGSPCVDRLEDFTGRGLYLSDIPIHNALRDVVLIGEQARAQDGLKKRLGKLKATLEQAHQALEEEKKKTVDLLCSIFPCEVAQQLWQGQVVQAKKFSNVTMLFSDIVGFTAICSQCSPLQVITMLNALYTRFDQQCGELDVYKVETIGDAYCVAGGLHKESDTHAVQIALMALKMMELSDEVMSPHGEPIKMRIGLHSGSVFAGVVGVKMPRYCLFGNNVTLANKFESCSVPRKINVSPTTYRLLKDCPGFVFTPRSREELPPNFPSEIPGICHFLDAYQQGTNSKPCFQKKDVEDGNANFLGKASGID
soluble guanylate cyclase (human GUCYA3 and GUCYB3) overexpressed in CHO cells, sequence (Q02153 whole entry): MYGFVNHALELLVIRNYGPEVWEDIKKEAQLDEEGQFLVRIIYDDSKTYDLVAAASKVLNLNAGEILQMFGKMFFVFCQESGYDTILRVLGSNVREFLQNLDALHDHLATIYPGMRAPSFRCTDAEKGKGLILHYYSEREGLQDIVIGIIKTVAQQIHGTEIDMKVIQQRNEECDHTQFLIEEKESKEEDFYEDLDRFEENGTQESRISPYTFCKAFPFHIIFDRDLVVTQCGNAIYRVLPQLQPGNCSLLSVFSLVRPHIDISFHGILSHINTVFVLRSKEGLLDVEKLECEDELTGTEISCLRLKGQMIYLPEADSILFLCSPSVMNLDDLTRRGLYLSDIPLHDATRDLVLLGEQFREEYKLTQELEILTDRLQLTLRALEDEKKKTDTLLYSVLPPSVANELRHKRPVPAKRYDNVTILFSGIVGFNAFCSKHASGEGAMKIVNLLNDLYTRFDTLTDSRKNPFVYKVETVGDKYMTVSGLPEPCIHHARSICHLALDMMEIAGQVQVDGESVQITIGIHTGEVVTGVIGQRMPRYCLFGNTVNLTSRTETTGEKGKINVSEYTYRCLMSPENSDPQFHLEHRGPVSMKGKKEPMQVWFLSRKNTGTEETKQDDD

| pEC50 | Compound |
| --- | --- |
| 7.77 | CCc1cc(CC2CCc3cccc(-c4cccc(-n5ncc(C(=O)O)c5CC)n4)c32)ccc1C1CCN(C(=O)C2CC2)CC1 (single isomer, unassigned; (-)) [38-1 (−), (−)-1-(6-(3-(4-(1-(cyclopropanecarbonyl)piperidin-4-yl)-3-ethylbenzyl)-2,3-dihydro-1H-inden-4-yl)pyridin-2-yl)-5-ethyl-1H-pyrazole-4-carboxylic acid] |
| 8.05 | CCc1cc(CC2CCc3cccc(-c4cccc(-n5ncc(C(=O)O)c5C)n4)c32)ccc1C1CCN(C(=O)C2CC2)CC1 (single isomer, unassigned; (-)) [38-2 (−), (−)-1-(6-(3-(4-(1-(cyclopropanecarbonyl)piperidin-4-yl)-3-ethylbenzyl)-2,3-dihydro-1H-inden-4-yl)pyridin-2-yl)-5-methyl-1H-pyrazole-4-carboxylic acid] |
| 7.48 | CCc1c(C(=O)O)cnn1-c1cccc(-c2cccc3c2C(Cc2ccc(C4CCN(C(=O)C5CC5)CC4)cc2C)CC3)n1 (single isomer, unassigned; (-)) [38-3 (−), (−)-1-(6-(3-(4-(1-(cyclopropanecarbonyl)piperidin-4-yl)-2-methylbenzyl)-2,3-dihydro-1H-inden-4-yl)pyridin-2-yl)-5-ethyl-1H-pyrazole-4-carboxylic acid] |
| 7.82 | CCC[C@H](O)C(=O)N1CCC(c2ccc(CC3CCc4cccc(-c5cccc(-n6ncc(C(=O)O)c6CC)n5)c43)cc2CC)CC1 (single isomer, unassigned; (-)) [40-1 (−)] |
| 7.60 | CCc1c(C(=O)O)cnn1-c1cccc(-c2cccc3c2C(Cc2ccc(C4CCN(C(=O)[C@H](C)O)CC4)cc2C)CC3)n1 (single isomer, unassigned; (-)) [40-2 (−)] |
| 7.31 | CCC[C@H](O)C(=O)N1CCC(c2ccc(CC3CCc4cccc(-c5cccc(-n6ncc(C(=O)O)c6CC)n5)c43)c(C)c2)CC1 (single isomer, unassigned; (-)) [40-3 (−)] |
| 7.64 | Cc1cc2c(c(-c3cccc(-n4ncc(C(=O)O)c4C(F)(F)F)n3)c1)C(Nc1ccc(C3CCN(C(=O)C4CC4)CC3)cc1C)CC2 (single isomer, unassigned; (-)) [43 (−), (−)-1-(6-(3-((4-(1-(Cyclopropanecarbonyl)piperidin-4-yl)-2-methylphenyl)amino)-6-methyl-2,3-dihydro-1H-inden-4-yl)pyridin-2-yl)-5-(trifluoromethyl)-1H-pyrazole-4-carboxylic acid] |
| 8.00 | Cc1cc(C2CCN(C(=O)C3CC3)CC2)ccc1NC1CCc2cccc(-c3cccc(-n4ncc(C(=O)O)c4C)c3)c21 (single isomer, unassigned; (-)) [44 (−), (−)-1-(3-(3-((4-(1-(cyclopropanecarbonyl)piperidin-4-yl)-2-methylphenyl)amino)-2,3-dihydro-1H-inden-4-yl)phenyl)-5-methyl-1H-pyrazole-4-carboxylic acid] |
| 6.77 | Cc1cc(C2CCN(C(=O)C3CC3)CC2)ccc1CC1CCc2cccc(-c3cccc(-n4ncc(C(=O)O)c4C)c3)c21 (single isomer, unassigned; (-)) [54. b). (−), (−)-1-(3-(3-(4-(1-(cyclopropanecarbonyl)piperidin-4-yl)-2-methylbenzyl)-2,3-dihydro-1H-inden-4-yl)phenyl)-5-methyl-1H-pyrazole-4-carboxylic acid] |
| 7.82 | CCc1cc(CC2CCc3cccc(-c4cccc(-n5ncc(C(=O)O)c5C)c4)c32)ccc1C1CCN(C(=O)C2CC2)CC1 (single isomer, unassigned; (-)) [55-1 (−), (−)-1-(3-(3-(4-(1-(cyclopropanecarbonyl)piperidin-4-yl)-3-ethylbenzyl)-2,3-dihydro-1H-inden-4-yl)phenyl)-5-methyl-1H-pyrazole-4-carboxylic acid] |
| 8.49 | Cc1nnc(N2CCC(c3ccc(NC4CCc5cccc(-c6cccc(-n7ncc(C(=O)O)c7C)n6)c54)c(C)c3)CC2)o1 (single isomer, unassigned; (-)) [58. b). (−), (−)-5-methyl-1-(6-(3-((2-methyl-4-(1-(5-methyl-1,3,4-oxadiazol-2-yl)piperidin-4-yl)phenyl)amino)-2,3-dihydro-1H-inden-4-yl)pyridin-2-yl)-1H-pyrazole-4-carboxylic acid] |
| 9.00 | CCc1c(C(=O)O)cnn1-c1cccc(-c2cccc3c2N(Cc2ccc(C4CCN(C(=O)C5CC5)CC4)cc2C)CC3C)n1 (single isomer, unassigned; (-)) [(−)-20-2, (−)-1-(6-(1-(4-(1-(Cyclopropanecarbonyl)piperidin-4-yl)-2-methylbenzyl)-3-methylindolin-7-yl)pyridin-2-yl)-5-ethyl-1H-pyrazole-4-carboxylic acid] |
| 7.70 | CCc1cc(NC2COc3cccc(-c4cccc(-n5ncc(C(=O)O)c5C(F)(F)F)n4)c32)ccc1C1CCN(C(=O)C2CC2)CC1 (single isomer, unassigned; (-)) [(−)-36-1, (−)-1-(6-(3-((4-(1-(Cyclopropanecarbonyl)piperidin-4-yl)-3-ethylphenyl)amino)-2,3-dihydrobenzofuran-4-yl)pyridin-2-yl)-5-(trifluoromethyl)-1H-pyrazole-4-carboxylic acid] |
| 9.00 | CCc1cc(NC2COc3cccc(-c4cccc(-n5ncc(C(=O)O)c5CC)n4)c32)ccc1C1CCN(C(=O)C2CC2)CC1 (single isomer, unassigned; (-)) [(−)-36-2, (−)-1-(6-(3-((4-(1-(Cyclopropanecarbonyl)piperidin-4-yl)-3-ethylphenyl)amino)-2,3-dihydrobenzofuran-4-yl)pyridin-2-yl)-5-ethyl-1H-pyrazole-4-carboxylic acid] |
| 7.00 | Cc1cc(C2CCN(C(=O)C(C)C)CC2)ccc1NC1CCc2cccc(-c3cccc(-n4ncc(C(=O)O)c4C)n3)c21 (single isomer, unassigned; (-)) [(−)-46-1, (−)-1-(6-(3-((4-(1-isobutyrylpiperidin-4-yl)-2-methylphenyl)amino)-2,3-dihydro-1H-inden-4-yl)pyridin-2-yl)-5-methyl-1H-pyrazole-4-carboxylic acid] |
| 6.80 | CCC(=O)N1CCC(c2ccc(NC3CCc4cccc(-c5cccc(-n6ncc(C(=O)O)c6C)n5)c43)c(C)c2)CC1 (single isomer, unassigned; (-)) [(−)-46-2] |
| 6.52 | Cc1cc(C2CCN(C(=O)CC3CC3)CC2)ccc1NC1CCc2cccc(-c3cccc(-n4ncc(C(=O)O)c4C)n3)c21 (single isomer, unassigned; (-)) [(−)-46-3, (−)-1-(6-(3-((4-(1-(2-Cyclopropylacetyl)piperidin-4-yl)-2-methylphenyl)amino)-2,3-dihydro-1H-inden-4-yl)pyridin-2-yl)-5-methyl-1H-pyrazole-4-carboylic acid] |
| 6.17 | Cc1cc(C2CCN(C(=O)CC3CC3)CC2)c(F)cc1NC1CCc2cccc(-c3cccc(-n4ncc(C(=O)O)c4C)n3)c21 (single isomer, unassigned; (-)) [(−)-46-5, (−)-1-(6-(3-((4-(1-(2-Cyclopropylacetyl)piperidin-4-yl)-5-fluoro-2-methylphenyl)amino)-2,3-dihydro-1H-inden-4-yl)pyridin-2-yl)-5-methyl-1H-pyrazole-4-carboxylic acid] |
| 7.72 | CCOC(=O)N1CCC(c2ccc(NC3CCc4cccc(-c5cccc(-n6ncc(C(=O)O)c6CC)n5)c43)cc2CC)CC1 (single isomer, unassigned; (-)) [(−)-52-1, (−)-1-(6-(3-((4-(1-(Ethoxycarbonyl)piperidin-4-yl)-3-ethylphenyl)amino)-2,3-dihydro-1H-inden-4-yl)pyridin-2-yl)-5-ethyl-1H-pyrazole-4-carboxylic acid] |
| 9.00 | CCc1cc(NC2CCc3cccc(-c4cccc(-n5ncc(C(=O)O)c5CC)n4)c32)ccc1C1CCN(C(=O)OC)CC1 (single isomer, unassigned; (-)) [(−)-52-2, (−)-5-Ethyl-1-(6-(3-((3-ethyl-4-(1-(methoxycarbonyl)piperidin-4-yl)phenyl)amino)-2,3-dihydro-1H-inden-4-yl)pyridin-2-yl)-1H-pyrazole-4-carboxylic acid] |
| 8.52 | C=CCOC(=O)N1CCC(c2ccc(NC3CCc4cccc(-c5cccc(-n6ncc(C(=O)O)c6CC)n5)c43)cc2CC)CC1 (single isomer, unassigned; (-)) [(−)-52-3, (−)-1-(6-(3-((4-(1-((Allyloxy)carbonyl)piperidin-4-yl)-3-ethylphenyl)amino)-2,3-dihydro-1H-inden-4-yl)pyridin-2-yl)-5-ethyl-1H-pyrazole-4-carboxylic acid] |
| 7.68 | CCc1cc(NC2CCc3cccc(-c4cccc(-n5ncc(C(=O)O)c5CC)n4)c32)ccc1C1CCN(C(=O)C2CC2)CC1 (single isomer, unassigned; (-)) [(−)-53-1, (−)-1-(6-(3-((4-(1-(cyclopropanecarbonyl)piperidin-4-yl)-3-ethylphenyl)amino)-2,3-dihydro-1H-inden-4-yl)pyridin-2-yl)-5-ethyl-1H-pyrazole-4-carboxylic acid] |
| 7.23 | Cc1cc(C2CCN(C(=O)CC3CC3)CC2)cc(F)c1NC1CCc2cccc(-c3cccc(-n4ncc(C(=O)O)c4C)n3)c21 (single isomer, unassigned; (-)) [(−)-53-3, (−)-1-(6(3-((4-(1-(2-cyclopropylacetyl)piperidin-4-yl)-2-fluoro-6-methylphenyl)amino)-2,3-dihydro-1H-inden-4-yl)pyridin-2-yl)-5-methyl-1H-pyrazole-4-carboxylic acid] |
| 7.62 | Cc1cc(C2CCN(C(=O)C3CC3)CC2)ccc1NC1CCc2cccc(-c3cccc(-n4ncc(C(=O)O)c4C(F)F)n3)c21 (single isomer, unassigned; (-)) [(−)-53-4, (−)-1-(6-(3-((4-(1-(cyclopropanecarbonyl)piperidin-4-yl)-2-methylphenyl)amino)-2,3-dihydro-1H-inden-4-yl)pyridin-2-yl)-5-(difluoromethyl)-1H-pyrazole-4-carboxylic acid] |
